# Reference: PubChem BioAssay AID1919004 (Molecular Pharmacology Branch, DTP, NCI, 2023)
# pIC50: −log10 of the molar value.
# Tested on: 883617-216-R-J1-PDC complex spheroids, growth, % test/control
# Experiment: Anticancer human tumor 883617-216-R-J1-PDC patient-derived bladder carcinoma cell line growth inhibition [AhR]
# Conditions: for viability, T/C: stronger effect = lower value
# Outline: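 Spheroids combined tumor cells with HUVEC endothelial cells and human MSCs as stroma. AhR antagonists were paired with standard or investigational drugs, each dosed in half-log steps down from near clinical Cmax, or from 10 microM where Cmax was unknown.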
# [1] = curve of first compound, second compound 0.1 µM
# [2] = curve of first compound, second compound 0.316 µM
# [3] = curve of first compound, second compound 1 µM
# [4] = curve of first compound, second compound 3.16 µM
# [5] = curve of first compound, second compound 10 µM
# [6] = second compound 0.1 µM, first compound 0.00949 µM
# [7] = second compound 0.1 µM, first compound 0.03 µM
# [8] = second compound 0.1 µM, first compound 0.0949 µM
# [9] = second compound 0.1 µM, first compound 0.3 µM
# [10] = second compound 0.316 µM, first compound 0.00949 µM
# [11] = second compound 0.316 µM, first compound 0.03 µM
# [12] = second compound 0.316 µM, first compound 0.0949 µM
# [13] = second compound 0.316 µM, first compound 0.3 µM
# [14] = second compound 1 µM, first compound 0.00949 µM
# [15] = second compound 1 µM, first compound 0.03 µM
# [16] = second compound 1 µM, first compound 0.0949 µM
# [17] = second compound 1 µM, first compound 0.3 µM
# [18] = second compound 3.16 µM, first compound 0.00949 µM
# [19] = second compound 3.16 µM, first compound 0.03 µM
# [20] = second compound 3.16 µM, first compound 0.0949 µM
# [21] = second compound 3.16 µM, first compound 0.3 µM
# [22] = second compound 10 µM, first compound 0.00949 µM
# [23] = second compound 10 µM, first compound 0.03 µM
# [24] = second compound 10 µM, first compound 0.0949 µM
# [25] = second compound 10 µM, first compound 0.3 µM
# [26] = second compound 0.1 µM, first compound 0.0316 µM
# [27] = second compound 0.1 µM, first compound 0.1 µM
# [28] = second compound 0.1 µM, first compound 0.316 µM
# [29] = second compound 0.1 µM, first compound 1 µM
# [30] = second compound 0.1 µM, first compound 3.16 µM
# [31] = second compound 0.1 µM, first compound 10 µM
# [32] = second compound 0.316 µM, first compound 0.0316 µM
# [33] = second compound 0.316 µM, first compound 0.1 µM
# [34] = second compound 0.316 µM, first compound 0.316 µM
# [35] = second compound 0.316 µM, first compound 1 µM
# [36] = second compound 0.316 µM, first compound 3.16 µM
# [37] = second compound 0.316 µM, first compound 10 µM
# [38] = second compound 1 µM, first compound 0.0316 µM
# [39] = second compound 1 µM, first compound 0.1 µM
# [40] = second compound 1 µM, first compound 0.316 µM
# [41] = second compound 1 µM, first compound 1 µM
# [42] = second compound 1 µM, first compound 3.16 µM
# [43] = second compound 1 µM, first compound 10 µM
# [44] = second compound 3.16 µM, first compound 0.0316 µM
# [45] = second compound 3.16 µM, first compound 0.1 µM
# [46] = second compound 3.16 µM, first compound 0.316 µM
# [47] = second compound 3.16 µM, first compound 1 µM
# [48] = second compound 3.16 µM, first compound 3.16 µM
# [49] = second compound 3.16 µM, first compound 10 µM
# [50] = second compound 10 µM, first compound 0.0316 µM
# [51] = second compound 10 µM, first compound 0.1 µM
# [52] = second compound 10 µM, first compound 0.316 µM
# [53] = second compound 10 µM, first compound 1 µM
# [54] = second compound 10 µM, first compound 3.16 µM
# [55] = second compound 10 µM, first compound 10 µM
# 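Note: exposure lasted 7 days after dosing on day 3 of spheroid growth.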
smiles,measurement,setting,value
CCc1c2c(nc3ccc(O)cc13)-c1cc3c(c(=O)n1C2)COC(=O)[C@]3(O)CC + CC(CO)NC(=O)c1cc(-c2ccc(Cl)cc2)nn(-c2cnn(C)c2)c1=O,pIC50,[1],< 6.52
same,pIC50,[2],< 6.52
same,pIC50,[3],< 6.52
same,pIC50,[4],< 6.52
same,pIC50,[5],6.52
same,"viability, T/C","second compound 0.1 µM, first compound 0.000949 µM",50.4%
same,"viability, T/C","second compound 0.1 µM, first compound 0.003 µM",64.7%
same,"viability, T/C",[6],66.9%
same,"viability, T/C",[7],39.6%
same,"viability, T/C",[8],85.5%
same,"viability, T/C",[9],86%
same,"viability, T/C","second compound 0.316 µM, first compound 0.000949 µM",68.2%
same,"viability, T/C","second compound 0.316 µM, first compound 0.003 µM",63.3%
same,"viability, T/C",[10],87.4%
same,"viability, T/C",[11],47.8%
same,"viability, T/C",[12],69.9%
same,"viability, T/C",[13],80.7%
same,"viability, T/C","second compound 1 µM, first compound 0.000949 µM",83.1%
same,"viability, T/C","second compound 1 µM, first compound 0.003 µM",88.2%
same,"viability, T/C",[14],145%
same,"viability, T/C",[15],64.1%
same,"viability, T/C",[16],89.4%
same,"viability, T/C",[17],63.9%
same,"viability, T/C","second compound 3.16 µM, first compound 0.000949 µM",110%
same,"viability, T/C","second compound 3.16 µM, first compound 0.003 µM",63.3%
same,"viability, T/C",[18],40.5%
same,"viability, T/C",[19],77.9%
same,"viability, T/C",[20],92.7%
same,"viability, T/C",[21],73.8%
same,"viability, T/C","second compound 10 µM, first compound 0.000949 µM",73.2%
same,"viability, T/C","second compound 10 µM, first compound 0.003 µM",61.7%
same,"viability, T/C",[22],103%
same,"viability, T/C",[23],87.3%
same,"viability, T/C",[24],43.6%
same,"viability, T/C",[25],57.4%
O=C(c1cc(Cc2n[nH]c(=O)c3ccccc23)ccc1F)N1CCN(C(=O)C2CC2)CC1 + CC(CO)NC(=O)c1cc(-c2ccc(Cl)cc2)nn(-c2cnn(C)c2)c1=O,pIC50,[1],< 5.00
same,pIC50,[2],< 5.00
same,pIC50,[3],< 5.00
same,pIC50,[4],< 5.00
same,pIC50,[5],< 5.00
same,"viability, T/C",[26],107%
same,"viability, T/C",[27],109%
same,"viability, T/C",[28],78.8%
same,"viability, T/C",[29],124%
same,"viability, T/C",[30],118%
same,"viability, T/C",[31],80.2%
same,"viability, T/C",[32],80%
same,"viability, T/C",[33],114%
same,"viability, T/C",[34],115%
same,"viability, T/C",[35],92.3%
same,"viability, T/C",[36],72.4%
same,"viability, T/C",[37],87.1%
same,"viability, T/C",[38],122%
same,"viability, T/C",[39],124%
same,"viability, T/C",[40],111%
same,"viability, T/C",[41],104%
same,"viability, T/C",[42],137%
same,"viability, T/C",[43],97%
same,"viability, T/C",[44],120%
same,"viability, T/C",[45],88.5%
same,"viability, T/C",[46],85.5%
same,"viability, T/C",[47],105%
same,"viability, T/C",[48],119%
same,"viability, T/C",[49],82.3%
same,"viability, T/C",[50],126%
same,"viability, T/C",[51],84.7%
same,"viability, T/C",[52],128%
same,"viability, T/C",[53],98.9%
same,"viability, T/C",[54],64.2%
same,"viability, T/C",[55],104%
CCN(c1cc(-c2ccc(CN3CCOCC3)cc2)cc(C(=O)NCc2c(C)cc(C)[nH]c2=O)c1C)C1CCOCC1 + Cc1cncc(-c2nc(NCCc3c[nH]c4ccccc34)c3ncn(C(C)C)c3n2)c1,pIC50,[1],< 5.52
same,pIC50,[2],< 5.52
same,pIC50,[3],< 5.52
same,pIC50,[4],< 5.52
same,pIC50,[5],> 8.02
same,"viability, T/C",[6],93.3%
same,"viability, T/C",[7],109%
same,"viability, T/C",[8],94.1%
same,"viability, T/C",[9],96.6%
same,"viability, T/C","second compound 0.1 µM, first compound 0.949 µM",98.2%
same,"viability, T/C","second compound 0.1 µM, first compound 3 µM",91.6%
same,"viability, T/C",[10],103%
same,"viability, T/C",[11],94.4%
same,"viability, T/C",[12],97.1%
same,"viability, T/C",[13],96.2%
same,"viability, T/C","second compound 0.316 µM, first compound 0.949 µM",98.6%
same,"viability, T/C","second compound 0.316 µM, first compound 3 µM",96.4%
same,"viability, T/C",[14],103%
same,"viability, T/C",[15],102%
same,"viability, T/C",[16],110%
same,"viability, T/C",[17],105%
same,"viability, T/C","second compound 1 µM, first compound 0.949 µM",97.8%
same,"viability, T/C","second compound 1 µM, first compound 3 µM",107%
same,"viability, T/C",[18],93.7%
same,"viability, T/C",[19],102%
same,"viability, T/C",[20],112%
same,"viability, T/C",[21],96.5%
same,"viability, T/C","second compound 3.16 µM, first compound 0.949 µM",107%
same,"viability, T/C","second compound 3.16 µM, first compound 3 µM",110%
same,"viability, T/C",[22],52.3%
same,"viability, T/C",[23],46.9%
same,"viability, T/C",[24],47.2%
same,"viability, T/C",[25],43.2%
same,"viability, T/C","second compound 10 µM, first compound 0.949 µM",27.3%
same,"viability, T/C","second compound 10 µM, first compound 3 µM",15.5%
Cc1ccccc1N=Nc1ccc(NC(=O)c2ccnn2C)c(C)c1,"viability, T/C",compound 0.1 µM,90.3% [middle of 20 runs]
same,"viability, T/C",compound 0.316 µM,84.6% [middle of 20 runs]
same,"viability, T/C",compound 1 µM,84.5% [middle of 19 runs]
same,"viability, T/C",compound 3.16 µM,77% [middle of 20 runs]
same,"viability, T/C",compound 10 µM,77% [middle of 21 runs]
same,pIC50,"compound alone, run of 06/14/2022",< 5.00
COc1ccc([C@@H](O)c2cc(-c3ncnc4cc(N5CCOCC5)ccc34)c(F)cc2Cl)nn1 + CC(CO)NC(=O)c1cc(-c2ccc(Cl)cc2)nn(-c2cnn(C)c2)c1=O,pIC50,[1],5.04
same,pIC50,[2],5.08
same,pIC50,[3],5.00
same,pIC50,[4],5.00
same,pIC50,[5],5.45
same,"viability, T/C",[26],83%
same,"viability, T/C",[27],94.7%
same,"viability, T/C",[28],76.8%
same,"viability, T/C",[29],75.9%
same,"viability, T/C",[30],60.1%
same,"viability, T/C",[31],49.1%
same,"viability, T/C",[32],69.9%
same,"viability, T/C",[33],128%
same,"viability, T/C",[34],83.1%
same,"viability, T/C",[35],63.9%
same,"viability, T/C",[36],124%
same,"viability, T/C",[37],42.2%
same,"viability, T/C",[38],86.4%
same,"viability, T/C",[39],99.7%
same,"viability, T/C",[40],55.9%
same,"viability, T/C",[41],58.9%
same,"viability, T/C",[42],61.4%
same,"viability, T/C",[43],42.1%
same,"viability, T/C",[44],64.8%
same,"viability, T/C",[45],135%
same,"viability, T/C",[46],73.6%
same,"viability, T/C",[47],61.7%
same,"viability, T/C",[48],37.1%
same,"viability, T/C",[49],51.6%
same,"viability, T/C",[50],119%
same,"viability, T/C",[51],81.7%
same,"viability, T/C",[52],88.7%
same,"viability, T/C",[53],73.4%
same,"viability, T/C",[54],51.1%
same,"viability, T/C",[55],32.4%
CC(CO)NC(=O)c1cc(-c2ccc(Cl)cc2)nn(-c2cnn(C)c2)c1=O (configuration not stated),pIC50,"compound alone, run of 05/31/2022",< 5.00
CC1(C)CCC(CN2CCN(c3ccc(C(=O)NS(=O)(=O)c4ccc(NCC5CCOCC5)c([N+](=O)[O-])c4)c(Oc4cnc5[nH]ccc5c4)c3)CC2)=C(c2ccc(Cl)cc2)C1 + Cc1cncc(-c2nc(NCCc3c[nH]c4ccccc34)c3ncn(C(C)C)c3n2)c1,pIC50,[1],5.21
same,pIC50,[2],5.20
same,pIC50,[3],5.23
same,pIC50,[4],5.08
same,pIC50,[5],< 5.00
same,"viability, T/C",[26],85.7%
same,"viability, T/C",[27],88.8%
same,"viability, T/C",[28],90%
same,"viability, T/C",[29],78.6%
same,"viability, T/C",[30],80.4%
same,"viability, T/C",[31],28.5%
same,"viability, T/C",[32],97.3%
same,"viability, T/C",[33],99.2%
same,"viability, T/C",[34],94.2%
same,"viability, T/C",[35],88.5%
same,"viability, T/C",[36],82.2%
same,"viability, T/C",[37],29%
same,"viability, T/C",[38],86.5%
same,"viability, T/C",[39],89.7%
same,"viability, T/C",[40],87.7%
same,"viability, T/C",[41],84.5%
same,"viability, T/C",[42],82.5%
same,"viability, T/C",[43],23%
same,"viability, T/C",[44],99.1%
same,"viability, T/C",[45],108%
same,"viability, T/C",[46],115%
same,"viability, T/C",[47],97.2%
same,"viability, T/C",[48],106%
same,"viability, T/C",[49],38.9%
same,"viability, T/C",[50],49.4%
same,"viability, T/C",[51],52.6%
same,"viability, T/C",[52],57.1%
same,"viability, T/C",[53],61.4%
same,"viability, T/C",[54],72%
same,"viability, T/C",[55],37.3%
